Laboratory results from paper PMC4142417, “Epigenetic Impacts of Ascorbate on Human Metastatic Melanoma Cells” (Frontiers in Oncology, 2014).
Where two headings read alike, the source gives them in different places.

Key:
[1] = tested on: GLUT-1 expression (HIF-1α downstream target) in melanoma cell lines; design: method as in PMID 24330097; conditions: treatment at the individual IC50 concentrations, ref [5]; cited from earlier work
[2] = tested on: miRNA expression in BLM melanoma cells; assay: miRNA expression chip analysis; type: cell-based, human
Protocol: microRNA was isolated from BLM cells using the miRNeasy kit (Qiagen, Hilden, Germany) according to the procedure described by the manufacturer. miRNA expression analysis was performed on BLM melanoma cells (five groups: untreated; 200 μM, 8 mM ascorbate treated, 4 and 12 h after the 1 h treatment, all in triplicates) using the human miRNA Microarray Release 14.0, 8x15K (Agilent, Waldbronn, Germany) based on Sanger miRbase (release 14.0). Two hundred nanograms of RNA were used per sample. The miRNA expression analysis was kindly performed at the Genomic Core Facility of the European Molecular Biology Laboratory (EMBL, Heidelberg, Germany) according to the supplier’s instructions. Evaluation of raw data generated at the Genomic Core Facility of the EMBL was performed as described previously ([32]).
Figure 6 Ascorbate alters the expression of miRNA in melanoma cells. A miRNA expression chip analysis was performed on human metastatic BLM melanoma cells (5 groups: untreated, 200 μM ascorbate, 8 mM ascorbate, both 4 and 12 h after ascorbate exposure; all in triplicates) using the human miRNA Microarray Release 14.0, 8x15K (Agilent Technologies) based on Sanger miRbase (release 14.0). A total of 151 miRNAs were differentially expressed in response to ascorbate.

[3] = tested on: DNA methyltransferase (DNMT) activity in MeWo melanoma cells; assay: DNMT activity in nuclear extracts of treated MeWo cells; type: cell-based, human; conditions: 200 μM for 1 h, nuclear extract 12 h after treatment
Protocol: (§1) DNMT activity was analyzed in the nuclear extracts with the DNMT activity/inhibition assay (Active Motif) according to the procedure described by the manufacturer.
(§2) Global DNMT activity was determined in nuclear extracts of MeWo and BLM cells 12 h after 1 h treatment with 200 μM or 8 mM ascorbate.

[4] = tested on: human HDACs (HeLa nuclear extract); assay: HDAC-inhibitor screening assay with HeLa nuclear extract; type: biochemical; conditions: 5–8000 μM, 2 h at 37°C
Protocol: Determination of a possible HDAC-inhibitor activity of ascorbate was done by using the HDAC assay kit (Active Motif, Rixensart, Belgium). Ascorbate was diluted in assay buffer to the final concentrations of 5, 10, 20, 50, 100, 200 μM, and 8 mM. Assay was performed according to manufacturer’s protocol. Briefly, ascorbate was incubated with HeLa nuclear extract as a source of human HDACs for 2 h at 37°C and the developing time was set to 10 min. Each experiment was performed in triplicates and repeated three times.
(A) Overall HDAC inhibition in cellular extracts of the human cell line HeLa by increasing concentrations of ascorbate (5–8000 μM). As reference inhibitor 100 μM suberoylanilide hydroxamic acid (SAHA) was used. Every concentration was tested three times in triplicates. (B) Specific fluorometric profiling assay using recombinant human HDACs of classes I, II, and IV. Specific inhibition values were generated for the treatment with 50 μM and 8 mM ascorbate. Inhibition values for every HDAC were yielded by two experiments, each performed in duplicates. Shown are mean ± SD. One-way ANOVA Dunnett’s multiple comparison test, n.s. indicates not significant.

[5] = tested on: 60 cancer cell lines of the NCI60 panel; design: method as in PMID 24330097; conditions: ref [5], read-out: overall IC50 of all 60 cancer cell lines; cited from earlier work
[6] = tested on: human HDAC1, HDAC2, HDAC3, HDAC4, HDAC5, HDAC6, HDAC7, HDAC8, HDAC9, HDAC10, and HDAC11; assay: HDAC-inhibitor profiling assay (fluorometric, recombinant HDACs of classes I, II, and IV); type: biochemical; conditions: 50 μM and 8 mM ascorbate
Protocol: The HDAC profiling assay was performed on basis of fluorometric measurement by Scottish Biomedical (Scottish Biomedical, Glasgow, UK). The percentage inhibition values of 50 μM and 8 mM ascorbate against human HDAC1, HDAC2, HDAC3, HDAC4, HDAC5, HDAC6, HDAC7, HDAC8, HDAC9, HDAC10, and HDAC11 was determined. Both concentrations of ascorbate were tested in two experiments, each in duplicates.

[7] = design: method as in PMID 23670640; conditions: i.v. administration of 70 g/m^2; ref [16]; cited from earlier work
LOX-IMVI melanoma cells = tested on: LOX-IMVI melanoma cells; design: method as in PMID 24330097; conditions: 8 mM, ref [5]; cited from earlier work
BLM melanoma cells = assay: Cell-cycle analysis (propidium iodide, FACS); type: cell-based, human; conditions: 8 mM for 1 h
Protocol: BLM cells were incubated with ascorbate at 8 mM. After 0–24 h (in 2 h intervals) the cells (1 × 10^6) were harvested, washed with cold PBS, fixed with 75% ethanol, and incubated at 4°C for at least 1 h. Cells were then centrifuged and washed twice in cold PBS. Intracellular DNA was labeled with propidium iodide solution [propidium iodide […] (Sigma) and RNase […] (Thermo Scientific) in PBS] and incubated at 4°C for 30 min in the dark. Cell cycle was analyzed using flow cytometry and FACSDiva software (BD Biosciences, Heidelberg, Germany). As shown previously ([5]), pharmacological doses of ascorbate in the low millimolar-range induce cell death in human cancer cells. However, since in the latter publication we only performed end-point analyses 24 h after incubation of the cells with ascorbate, for the current project we exposed BLM cells to pharmacological 8 mM ascorbate for 1 h, and the cells were ethanol-fixed every 2 h for 24 h to closely monitor cell-cycle alterations at 2 h intervals over 24 h. The cell cycle was analyzed with FACS after staining of the cells with propidium iodide. […] At 12 h post ascorbate exposure only a small percentage of the BLM cells were shifted toward the sub-G1 fraction of cells. Therefore, the 12 h time point after ascorbate exposure was chosen for the following experiments.  Figure 2 Pharmacological ascorbate induces apoptosis in human metastatic BLM melanoma cells in a time-dependent manner. BLM cells were treated with 8 mM ascorbate for 1 h. Cells were ethanol-fixed every 2 h for 24 h, stained with propidium iodide, and cell cycle was analyzed with FACS. Depicted are the FACS plots for the untreated control cells and for 2, 4, 6, 8, 12, 16, 20, and 24 h after ascorbate exposure. […] Gray colored graphs indicate the control cells; black colored graphs (2–8 h) the initial shift into G2/M phase; red colored graphs (12–24 h) the subsequent shift into sub-G1 fraction.

[8] = tested on: 9 human melanoma cell lines; design: method as in PMID 24330097; conditions: ref [5], cited from earlier work
[9] = tested on: DNA methyltransferase (DNMT) activity in BLM melanoma cells; assay: DNMT activity in nuclear extracts of treated BLM cells; type: cell-based, human; conditions: 200 μM for 1 h, nuclear extract 12 h after treatment
Protocol: as §1, §2

[10] = 8 mM vs. 200 μM for 1 h, after 12 h
[11] = 12 h after 1 h exposure, 8 mM vs. 200 μM ascorbate

O=C1O[C@H]([C@@H](O)CO)C(O)=C1O [ascorbate, ascorbic acid]
GLUT-1 expression [1]: decreased
number of miRNAs differentially expressed in response to ascorbate ([2]; 200 μM or 8 mM for 1 h, 4 and 12 h after exposure): 151
number of up-regulated miRNAs [2, 10]: 32
up-regulation of the 32 miRNAs [2, 10]: 4- to 38 fold
Up-regulation of hsa-miR-99b [2, 11]: 2.44 2 × log^2
Up-regulation of hsa-miR-125b-2 [2, 11]: 2.8 2 × log^2
Up-regulation of hsa-miR-134 [2, 11]: 2.15 2 × log^2
Up-regulation of hsa-miR-135a [2, 11]: 2.45 2 × log^2
Up-regulation of hsa-miR-339-3p [2, 11]: 2.47 2 × log^2
Up-regulation of hsa-miR-345 [2, 11]: 2.82 2 × log^2
Up-regulation of hsa-miR-375 [2, 11]: 3.65 2 × log^2
Up-regulation of hsa-miR-422a [2, 11]: 4.29 2 × log^2
Up-regulation of hsa-miR-490-5p [2, 11]: 3.91 2 × log^2
Up-regulation of hsa-miR-516a-3p [2, 11]: 2.56 2 × log^2
Up-regulation of hsa-miR-564 [2, 11]: 3.28 2 × log^2
Up-regulation of hsa-miR-583 [2, 11]: 3.97 2 × log^2
Up-regulation of hsa-miR-596 [2, 11]: 5.26 2 × log^2
Up-regulation of hsa-miR-614 [2, 11]: 2.61 2 × log^2
Up-regulation of hsa-miR-617 [2, 11]: 2.33 2 × log^2
Up-regulation of hsa-miR-629 [2, 11]: 3.38 2 × log^2
Up-regulation of hsa-miR-630 [2, 11]: 4.3 2 × log^2
Up-regulation of hsa-miR-654-5p [2, 11]: 3.39 2 × log^2
Up-regulation of hsa-miR-662 [2, 11]: 3.59 2 × log^2
Up-regulation of hsa-miR-663 [2, 11]: 2.05 2 × log^2
Up-regulation of hsa-miR-708 [2, 11]: 3.48 2 × log^2
Up-regulation of hsa-miR-718 [2, 11]: 2.97 2 × log^2
Up-regulation of hsa-miR-887 [2, 11]: 5.14 2 × log^2
Up-regulation of hsa-miR-1181 [2, 11]: 2.06 2 × log^2
Up-regulation of hsa-miR-1225-5p [2, 11]: 2.38 2 × log^2
Up-regulation of hsa-miR-1228 [2, 11]: 2.24 2 × log^2
Up-regulation of hsa-miR-1246 [2, 11]: 2.13 2 × log^2
Up-regulation of hsa-miR-1268 [2, 11]: 2.84 2 × log^2
Up-regulation of hsa-miR-1915 [2, 11]: 2.22 2 × log^2
Up-regulation of hsa-miR-1972 [2, 11]: 2.22 2 × log^2
Up-regulation of hsa-miR-1973 [2, 11]: 3.08 2 × log^2
Up-regulation of hsa-miR-2117 [2, 11]: 2.65 2 × log^2
increase of DNMT activity [3]: 4%
overall HDAC inhibition [4]: only a marginal inhibitory activity
IC50 [5]: 4.5 mM
inhibition of the 11 human HDACs [6]: neither the physiological 50 μM nor the pharmacologic 8 mM ascorbate showed a significant inhibition
blood peak concentration [7]: up to 49 mM
intracellular peroxide radicals (LOX-IMVI melanoma cells): high amount
percentage of sub-G1 (apoptotic) cells determined by FACS (LOX-IMVI melanoma cells): increased percentage
G2/M fraction of cells (BLM melanoma cells; 2 to 8 h after exposure): steadily increased
sub-G1 fraction of DNA fragmented cells (indicative for apoptosis) (BLM melanoma cells; 12 h post-treatment): prominent increase
cell cycle shift toward sub-G1 fraction (BLM melanoma cells; 20 h post-treatment): completely shifted toward the sub-G1 fraction
IC50 for all melanoma cell lines ([8]; NCI60 melanoma cell lines): low millimolar range
IC50 ([8]; NCI60 melanoma cell lines, read-out: IC50 for all melanoma cell lines): 3.1 mM
IC50 ([8]; NCI60 melanoma cell lines, read-out: IC50 range across melanoma cell lines): 0.2 to 8.5 mM
cytotoxic effect on melanoma cells ([8]; physiological ascorbate (200 μM)): no cytotoxic effect
increase of DNMT activity [9]: 18%
